Measured values published in patent publication US12077503B2, “Substituted cyclic amides and their use as herbicides” (FMC CORPORATION, priority 2015, dated 2024).

What was measured:
Format in all cases: in vivo
[1] = system: barnyardgrass (Echinochloa crus-galli); experiment: Test G Pre-Emergence Protocol; conditions: Echinochloa crus-galli, pre-emergence, 312 h, evaluated after 13 days; for pest or weed control at 15.625 g/ha: 15.625 g ai/ha, read-out: Barnyard grass damage rating (100=total damage to plant; 0=no damage to plant); for pest or weed control at 62.5 g/ha: 62.5 g ai/ha, 100=total damage to plant, 0=no damage to plant, read-out: plant damage rating, Barnyardgrass; for pest or weed control at 250 g/ha: 250 g ai/ha, read-out: Barnyardgrass damage rating (100=total damage to plant; 0=no damage to plant)
Method in brief: (§1)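 Herbicidal effect was rated 13 days post-application on a scale where 100 equals total damage. Spraying took place the day after sowing, using 15.625, 62.5 or 250 g/ha of compound in a 50:50 acetone/water solution with 0.5% Tween 20.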

corn (Zea mays) [2] = experiment: Test G Pre-Emergence Protocol; conditions: Zea mays, pre-emergence, 312 h, evaluated after 13 days; for plant injury at 15.625 g/ha: 15.625 g ai/ha; for plant injury at 15.625 g/ha / plant injury at 250 g/ha: read-out: Corn damage rating (100=total damage to plant; 0=no damage to plant); for plant injury at 62.5 g/ha: 62.5 g ai/ha, 100=total damage to plant, 0=no damage to plant, read-out: plant damage rating, Corn; for plant injury at 250 g/ha: 250 g ai/ha
Method in brief: as §1

[3] = system: giant foxtail (Setaria faberi); experiment: Test G Pre-Emergence Protocol; conditions: Setaria faberi, pre-emergence, 312 h, evaluated after 13 days; for pest or weed control at 15.625 g/ha: 15.625 g ai/ha; for pest or weed control at 15.625 g/ha / pest or weed control at 250 g/ha: read-out: Foxtail, Giant damage rating (100=total damage to plant; 0=no damage to plant); for pest or weed control at 62.5 g/ha: 62.5 g ai/ha, 100=total damage to plant, 0=no damage to plant, read-out: plant damage rating, Foxtail, Giant; for pest or weed control at 250 g/ha: 250 g ai/ha
Method in brief: as §1

[4] = system: ivy-leaved morning glory (Ipomoea hederacea); experiment: Test G Pre-Emergence Protocol; conditions: Ipomoea, pre-emergence, 312 h, evaluated after 13 days; for pest or weed control at 15.625 g/ha: 15.625 g ai/ha, read-out: Morning-glory, Ivy-leaved damage rating (100=total damage to plant; 0=no damage to plant); for pest or weed control at 62.5 g/ha: 62.5 g ai/ha, 100=total damage to plant, 0=no damage to plant, read-out: plant damage rating, Morningglory, Ivy-leaved; for pest or weed control at 250 g/ha: 250 g ai/ha, read-out: Morningglory, Ivy-leaved damage rating (100=total damage to plant; 0=no damage to plant)
Method in brief: as §1

[5] = system: redroot pigweed (Amaranthus retroflexus); experiment: Test G Pre-Emergence Protocol; conditions: Amaranthus retroflexus, pre-emergence, 312 h, evaluated after 13 days; for pest or weed control at 15.625 g/ha: 15.625 g ai/ha; for pest or weed control at 15.625 g/ha / pest or weed control at 250 g/ha: read-out: Pigweed, Redroot damage rating (100=total damage to plant; 0=no damage to plant); for pest or weed control at 62.5 g/ha: 62.5 g ai/ha, 100=total damage to plant, 0=no damage to plant, read-out: plant damage rating, Pigweed, Redroot; for pest or weed control at 250 g/ha: 250 g ai/ha
Method in brief: as §1

[6] = system: velvetleaf (Abutilon theophrasti); experiment: Test G Pre-Emergence Protocol; conditions: Abutilon theophrasti, pre-emergence, 312 h, evaluated after 13 days; for pest or weed control at 15.625 g/ha: 15.625 g ai/ha; for pest or weed control at 15.625 g/ha / pest or weed control at 250 g/ha: read-out: Velvetleaf damage rating (100=total damage to plant; 0=no damage to plant); for pest or weed control at 62.5 g/ha: 62.5 g ai/ha, 100=total damage to plant, 0=no damage to plant, read-out: plant damage rating, Velvetleaf; for pest or weed control at 250 g/ha: 250 g ai/ha
Method in brief: as §1

[7] = system: barnyardgrass (Echinochloa crus-galli); experiment: Test G Post-Emergence Protocol; conditions: Echinochloa crus-galli, post-emergence, 312 h; for pest or weed control at 15.625 g/ha: 15.625 g ai/ha, evaluated after 13 days (100=total damage to plant; 0=no damage to plant), read-out: Barnyardgrass damage rating; for pest or weed control at 62.5 g/ha: 62.5 g ai/ha, read-out: Barnyardgrass damage rating (100=total damage to plant; 0=no damage to plant); for pest or weed control at 62.5 g/ha / pest or weed control at 250 g/ha: evaluated after 13 days; for pest or weed control at 250 g/ha: 250 g ai/ha, read-out: damage to plant, Barnyardgrass (100=total damage to plant; 0=no damage to plant)
Method in brief: (§2)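 Sow in soil; grow 8 d (24/16 °C, 14 h light, 65% humidity); spray 15.625/62.5/250 g/ha in acetone:water 50:50 + 0.5% Tween 20; grow on, water twice daily; score damage 0–100 at 13 d.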

corn (Zea mays) [8] = experiment: Test G Post-Emergence Protocol; conditions: Zea mays, post-emergence, 312 h; for plant injury at 15.625 g/ha: 15.625 g ai/ha, evaluated after 13 days (100=total damage to plant; 0=no damage to plant), read-out: Corn damage rating; for plant injury at 62.5 g/ha: 62.5 g ai/ha, read-out: Corn damage rating (100=total damage to plant; 0=no damage to plant); for plant injury at 62.5 g/ha / plant injury at 250 g/ha: evaluated after 13 days; for plant injury at 250 g/ha: 250 g ai/ha, read-out: damage to plant, Corn (100=total damage to plant; 0=no damage to plant)
Method in brief: as §2

[9] = system: giant foxtail (Setaria faberi); experiment: Test G Post-Emergence Protocol; conditions: Setaria faberi, post-emergence, 312 h; for pest or weed control at 15.625 g/ha: 15.625 g ai/ha, evaluated after 13 days (100=total damage to plant; 0=no damage to plant), read-out: Foxtail, Giant damage rating; for pest or weed control at 62.5 g/ha: 62.5 g ai/ha, read-out: Foxtail, Giant damage rating (100=total damage to plant; 0=no damage to plant); for pest or weed control at 62.5 g/ha / pest or weed control at 250 g/ha: evaluated after 13 days; for pest or weed control at 250 g/ha: 250 g ai/ha, read-out: damage to plant, Foxtail, Giant (100=total damage to plant; 0=no damage to plant)
Method in brief: as §2

[10] = system: ivy-leaved morning glory (Ipomoea hederacea); experiment: Test G Post-Emergence Protocol; conditions: Ipomoea, post-emergence, 312 h; for pest or weed control at 15.625 g/ha: 15.625 g ai/ha, evaluated after 13 days (100=total damage to plant; 0=no damage to plant), read-out: Morningglory, Ivy-leaved damage rating; for pest or weed control at 62.5 g/ha: 62.5 g ai/ha, read-out: Morningglory, Ivy-leaved damage rating (100=total damage to plant; 0=no damage to plant); for pest or weed control at 62.5 g/ha / pest or weed control at 250 g/ha: evaluated after 13 days; for pest or weed control at 250 g/ha: 250 g ai/ha, read-out: damage to plant, Morningglory, Ivy-leaved (100=total damage to plant; 0=no damage to plant)
Method in brief: as §2

[11] = system: redroot pigweed (Amaranthus retroflexus); experiment: Test G Post-Emergence Protocol; conditions: Amaranthus retroflexus, post-emergence, 312 h; for pest or weed control at 15.625 g/ha: 15.625 g ai/ha, evaluated after 13 days (100=total damage to plant; 0=no damage to plant), read-out: Pigweed, Redroot damage rating; for pest or weed control at 62.5 g/ha: 62.5 g ai/ha, read-out: Pigweed, Redroot damage rating (100=total damage to plant; 0=no damage to plant); for pest or weed control at 62.5 g/ha / pest or weed control at 250 g/ha: evaluated after 13 days; for pest or weed control at 250 g/ha: 250 g ai/ha, read-out: damage to plant, Pigweed, Redroot (100=total damage to plant; 0=no damage to plant)
Method in brief: as §2

[12] = system: velvetleaf (Abutilon theophrasti); experiment: Test G Post-Emergence Protocol; conditions: Abutilon theophrasti, post-emergence, 312 h; for pest or weed control at 15.625 g/ha: 15.625 g ai/ha, evaluated after 13 days (100=total damage to plant; 0=no damage to plant), read-out: Velvetleaf damage rating; for pest or weed control at 62.5 g/ha: 62.5 g ai/ha, read-out: Velvetleaf damage rating (100=total damage to plant; 0=no damage to plant); for pest or weed control at 62.5 g/ha / pest or weed control at 250 g/ha: evaluated after 13 days; for pest or weed control at 250 g/ha: 250 g ai/ha, read-out: damage to plant, Velvetleaf (100=total damage to plant; 0=no damage to plant)
Method in brief: as §2

Compound	pest or weed control at 15.625 g/ha [1] [%]	pest or weed control at 62.5 g/ha [1] [%]	pest or weed control at 250 g/ha [1] [%]	plant injury at 15.625 g/ha (corn (Zea mays) [2]) [%]	plant injury at 62.5 g/ha (corn (Zea mays) [2]) [%]	plant injury at 250 g/ha (corn (Zea mays) [2]) [%]	pest or weed control at 15.625 g/ha [3] [%]	pest or weed control at 62.5 g/ha [3] [%]	pest or weed control at 250 g/ha [3] [%]	pest or weed control at 15.625 g/ha [4] [%]	pest or weed control at 62.5 g/ha [4] [%]	pest or weed control at 250 g/ha [4] [%]	pest or weed control at 15.625 g/ha [5] [%]	pest or weed control at 62.5 g/ha [5] [%]	pest or weed control at 250 g/ha [5] [%]	pest or weed control at 15.625 g/ha [6] [%]	pest or weed control at 62.5 g/ha [6] [%]	pest or weed control at 250 g/ha [6] [%]	pest or weed control at 15.625 g/ha [7] [%]	pest or weed control at 62.5 g/ha [7] [%]	also measured
CSc1nc(N)cc(NC(=O)[C@@H]2C(=O)N(C)C[C@H]2c2ccc(C(F)(F)F)cc2)n1 (racemic) [Compound 1644]	0	0	0	0	0	0	0	0	0	0	0	0	0	0	0	0	0	0	0	0	pest or weed control at 250 g/ha [7]: 20%; plant injury at 15.625 g/ha (corn (Zea mays) [8]): 0%; plant injury at 62.5 g/ha (corn (Zea mays) [8]): 0%; plant injury at 250 g/ha (corn (Zea mays) [8]): 0%; pest or weed control at 15.625 g/ha [9]: 0%; pest or weed control at 62.5 g/ha [9]: 20%; pest or weed control at 250 g/ha [9]: 30%; pest or weed control at 15.625 g/ha [10]: 0%; pest or weed control at 62.5 g/ha [10]: 10%; pest or weed control at 250 g/ha [10]: 40%; pest or weed control at 15.625 g/ha [11]: 0%; pest or weed control at 62.5 g/ha [11]: 0%; pest or weed control at 250 g/ha [11]: 0%; pest or weed control at 15.625 g/ha [12]: 0%; pest or weed control at 62.5 g/ha [12]: 0%; pest or weed control at 250 g/ha [12]: 0%
CN1C[C@@H](c2ccc(C(F)(F)F)cc2)[C@H](C(=O)Nc2cn[nH]c2)C1=O (racemic) [Compound 1646]	0	0	0	0	0	0	0	0	0	0	0	0	0	0	0	0	0	0	0	0	pest or weed control at 250 g/ha [7]: 0%; plant injury at 15.625 g/ha (corn (Zea mays) [8]): 0%; plant injury at 62.5 g/ha (corn (Zea mays) [8]): 0%; plant injury at 250 g/ha (corn (Zea mays) [8]): 0%; pest or weed control at 15.625 g/ha [9]: 0%; pest or weed control at 62.5 g/ha [9]: 10%; pest or weed control at 250 g/ha [9]: 20%; pest or weed control at 15.625 g/ha [10]: 0%; pest or weed control at 62.5 g/ha [10]: 0%; pest or weed control at 250 g/ha [10]: 0%; pest or weed control at 15.625 g/ha [11]: 0%; pest or weed control at 62.5 g/ha [11]: 0%; pest or weed control at 250 g/ha [11]: 0%; pest or weed control at 15.625 g/ha [12]: 0%; pest or weed control at 62.5 g/ha [12]: 0%; pest or weed control at 250 g/ha [12]: 0%
